Measurements as given in patent EP0187057A1, “2-Phenyl-isopropyl-allophanate, preparation and pharmaceutical application” (priority 1984, dated 1986).
“Also recorded” adds a separate entry of the source.

How the values were obtained:
crises psychomotrices = assay: Psychomotor seizures induced by low-frequency transcranial electrical stimulation; format: in vivo, souris; conditions: for Pourcentage de souris protégées une heure après traitement: groupes de 20 souris; for ED50: Mus musculus, po, read-out: DE50 capable de protéger 50 % des animaux contre les crises psychomotrices
From the text: (§1) Propriétés anticonvulsivantes : • On a effectué, pour déterminer ces propriétés anticonvulsivantes, des expérimentations sur le SCS 289 en procédant à des essais de protection : • - chez le lapin soumis à une transélectrification cranienne génératrice de crises épileptiformes de type "grand mal" ou recevant une infusion veineuse de pentétrazol provoquant l'apparition de myoclonies palpébrales; • - chez la souris recevant, par voie sous-cutanée des doses croissantes de pentétrazol entraînant convulsions et mort ou soumise à une transélectrification transcranienne à basse fréquence génératrice de crises psychomotrices.
On a également recherché si le SCS 289 était susceptible de protéger la souris contre le choc psychomoteur induit par une stimulation transcranienne à basse fréquence qui provoque, chez l'animal, un bref comportement de désorientation rappelant les attaques psychomotrices de l'homme.
Vis-à-vis des crises psychomotrices provoquées chez la souris par une stimulation électrique transcranienne à basse fréquence, le SCS 35 apparait plus actif que le SCS 289 : […]

[1] = tested on: myoclonies palpébrales provoquées par l'infusion veineuse de pentétrazol; assay: Intravenous pentetrazol infusion producing palpebral myoclonus (threshold seizures); format: in vivo, lapin; conditions: reference anticonvulsants, essais croisés, unit not given
From the text: as §1
Les résultats quant à la protection contre les crises pentétrazoliques liminaires génératrices de myaclonies palpébrales figurent dans les tableaux ci-après.
L'administration préalable de SCS 289 retarde l'apparition des myoclonies palpébrales provoquées par l'infusion veineuse de pentétrazol.
Une expérimentation similaire pratiquée en essais croisés a donné les résultats suivants pour divers anticonvulsivants de référence : […]

[2] = tested on: crises épileptiformes consécutives à l'électrochoc; assay: Maximal electroshock producing epileptiform 'grand mal' seizures (1st and 2nd electroshock); format: in vivo, lapin; conditions: for % d'animaux protégés complètement: one hour before second electroshock, groups of ten rabbits
From the text: as §1
Ne considérant comme significative, que la protection complète, les traitements pratiqués une heure avant le second électrochoc ont conféré les protection suivantes (sur groupes de dix lapins) :
Si, par ailleurs, on considère la protection contre les crises toniques (hyperextension des pattes postérieures), il apparaît également une synergie particulièrement aux doses associées de 200 mg/kg de produits.

crises pentétrazoliques = assay: Convulsant and lethal effects of subcutaneous pentetrazol (125 mg/kg); format: in vivo, souris
From the text: as §1
Pour déceler une synergie d'action antagoniste vis-à-vis des effets convulsivants et létaux du pentétrazol injecté par voie sous-cutanée chez la souris à la dose de 125 mg/kg, on a déterminé avec plus de précision la DE50 du SCS 289 et on a recherché si l'association avec le SCS 35 apportait un surcroit appréciable d'activité.
On n'a retenu comme significative que la protection à l'égard des effets létaux observés sur 24 heures.

CCCC(CCC)C(=O)O [Valproate de sodium]
Pourcentage de souris protégées une heure après traitement (crises psychomotrices; 50 mg/kg voie digestive): 15%
Pourcentage de souris protégées une heure après traitement (crises psychomotrices; 100 mg/kg voie digestive): 40%
Pourcentage de souris protégées une heure après traitement (crises psychomotrices; 250 mg/kg voie digestive): 85%
ED50 (crises psychomotrices; souris, voie digestive): ~120 mg/kg
DL50/DE50 / Crises psycho-motrices (crises psychomotrices; index thérapeutique absolu, souris): 15
DE50 psychodépressive / DE50 anticonvulsivante / Crises psycho-motrices (crises psychomotrices; index thérapeutique relatif, psychodépressive = mean of DE50 for agilité, force musculaire, motricité, curiosité): 7
Elévation du seuil myoclonique ([1]; 100 mg/kg): 54,7
Elévation du seuil myoclonique ([1]; 500 mg/kg): 65,5
protection contre les crises électriques maximales ([2]; 500 mg/kg, same experimental conditions): absolument inefficace; also recorded: inactif

NC(=O)NC(=O)Cc1ccccc1 [Phénacétamide]
Pourcentage de souris protégées une heure après traitement (crises psychomotrices; 10 mg/kg voie digestive): 40%
Pourcentage de souris protégées une heure après traitement (crises psychomotrices; 25 mg/kg voie digestive): 70%
Pourcentage de souris protégées une heure après traitement (crises psychomotrices; 50 mg/kg voie digestive): 85%
Pourcentage de souris protégées une heure après traitement (crises psychomotrices; 100 mg/kg voie digestive): 100%
ED50 (crises psychomotrices; souris, voie digestive): ~14 mg/kg
Elévation du seuil myoclonique ([1]; 25 mg/kg): 32,4
Elévation du seuil myoclonique ([1]; 50 mg/kg): 43,1
Elévation du seuil myoclonique ([1]; 100 mg/kg): 58,2

CCOC(=O)N(C(N)=O)c1ccccc1 [SCS 35, phényl-2 allophanate d'éthyle]
Pourcentage de souris protégées une heure après traitement (crises psychomotrices; 5 mg/kg voie digestive): 60%
Pourcentage de souris protégées une heure après traitement (crises psychomotrices; 10 mg/kg voie digestive): 90%
Pourcentage de souris protégées une heure après traitement (crises psychomotrices; 2,5 mg/kg voie digestive): 40%
ED50 (crises psychomotrices; souris, voie digestive): 3.5 mg/kg
DE50 capable de protéger 50 % des animaux contre les crises psychomotrices (crises psychomotrices; souris, voie digestive): 3,5 mg/kg
% de protection vis-à-vis de la létalité pentétrazolique (crises pentétrazoliques; 10 mg/kg): 0%
% de protection vis-à-vis de la létalité pentétrazolique (crises pentétrazoliques; 20 mg/kg): 10%
% de protection vis-à-vis de la létalité pentétrazolique (crises pentétrazoliques; 50 mg/kg): 50%
ED50 (crises pentétrazoliques; Mus musculus, sc, 24 h, souris, read-out: DE50 à l'égard des crises pentétrazoliques maximales et létales): 55 mg/kg
% d'animaux protégés complètement ([2]; 100 mg/kg): Nul
% d'animaux protégés contre les seules crises toniques ([2]; 100 mg/kg, hyperextension tonique des pattes postérieures): 60%
% d'animaux protégés contre les seules crises toniques ([2]; 200 mg/kg): 80%
% d'animaux protégés complètement ([2]; 200 mg/kg): 10%
